{"source": "patent US20080051585A1", "about": "“Process for the preparation of indolin-2-one derivatives useful as PR modulators” (Wyeth, priority 2006, published 2008)"}
{"smiles": "Cn1c(C#N)ccc1-c1ccc2c(c1F)C1(CC1)C(=O)N2", "note": "[Example 5, 5-(4′-fluoro-2′-oxospiro[cyclopropane-1,3′-indoline]-5′-yl)-1-methyl-1H-pyrrole-2-carbonitrile]", "values": [{"measurement": "melting point", "result": "222.5 to 223.8", "unit": "°C"}]}
